± gives the uncertainty stated by the source.
Test: xn = mol fraction of the nth substance listed

O=[N+]([O-])c1ccccc1 + CN(C)C=O
viscosity [mPa·s]
Settings	298.15 K	303.15 K	308.15 K	313.15 K
101.3 kPa, x1 = 0.0953	0.926 ± 0.024	0.8671 ± 0.022	0.8133 ± 0.021	0.7628 ± 0.02
101.3 kPa, x1 = 0.1999	1.026 ± 0.026	0.9585 ± 0.024	0.8949 ± 0.023	0.8362 ± 0.022
101.3 kPa, x1 = 0.3027	1.129 ± 0.028	1.053 ± 0.026	0.9803 ± 0.025	0.9134 ± 0.023
101.3 kPa, x1 = 0.4044	1.231 ± 0.03	1.146 ± 0.028	1.075 ± 0.027	0.9878 ± 0.025
101.3 kPa, x1 = 0.504	1.338 ± 0.033	1.246 ± 0.031	1.154 ± 0.029	1.07 ± 0.027
101.3 kPa, x1 = 0.6035	1.441 ± 0.035	1.332 ± 0.032	1.232 ± 0.03	1.14 ± 0.028
101.3 kPa, x1 = 0.7034	1.543 ± 0.037	1.423 ± 0.034	1.313 ± 0.032	1.214 ± 0.03
101.3 kPa, x1 = 0.8011	1.638 ± 0.039	1.505 ± 0.036	1.389 ± 0.034	1.28 ± 0.031
101.3 kPa, x1 = 0.8937	1.74 ± 0.042	1.595 ± 0.038	1.469 ± 0.036	1.351 ± 0.033
101.33 kPa, x2 = 0.1017	–	1.524 ± 0.011	–	1.307 ± 0.01
101.33 kPa, x2 = 0.2145	–	1.416 ± 0.011	–	1.22 ± 0.009
101.33 kPa, x2 = 0.3053	–	1.331 ± 0.01	–	–
101.33 kPa, x2 = 0.3083	–	–	–	1.157 ± 0.009
101.33 kPa, x2 = 0.404	–	1.246 ± 0.009	–	1.091 ± 0.008
101.33 kPa, x2 = 0.5021	–	1.165 ± 0.009	–	1.023 ± 0.008
101.33 kPa, x2 = 0.6003	–	1.085 ± 0.008	–	0.952 ± 0.007
101.33 kPa, x2 = 0.6968	–	1.002 ± 0.008	–	0.884 ± 0.007
101.33 kPa, x2 = 0.7975	–	0.917 ± 0.007	–	0.809 ± 0.006
101.33 kPa, x2 = 0.8975	–	0.826 ± 0.006	–	0.738 ± 0.006

CCCCCCC + CO
298.15 K
Settings	viscosity [mPa·s]
101 kPa, x1 = 0.01	0.535 ± 0.0037
101 kPa, x1 = 0.02	0.5317 ± 0.0037
101 kPa, x1 = 0.03	0.5293 ± 0.0036
101 kPa, x1 = 0.04	0.5277 ± 0.0036
101 kPa, x1 = 0.05	0.5257 ± 0.0036
101 kPa, x1 = 0.06	0.5246 ± 0.0036
101 kPa, x1 = 0.08	0.5247 ± 0.0036
101 kPa, x1 = 0.09	0.5214 ± 0.0036
101.33 kPa, x2 = 0.0171	0.401 ± 0.006
101.33 kPa, x2 = 0.0593	0.401 ± 0.006
101.33 kPa, x2 = 0.0865	0.404 ± 0.006
101.33 kPa, x2 = 0.1148	0.403 ± 0.006
101.33 kPa, x2 = 0.9043	0.548 ± 0.007
101.33 kPa, x2 = 0.9241	0.549 ± 0.007
101.33 kPa, x2 = 0.9474	0.552 ± 0.007
101.33 kPa, x2 = 0.9653	0.554 ± 0.007
101.33 kPa, x2 = 0.9765	0.553 ± 0.007

CCCCCCCC + CO
298.15 K, 101.33 kPa
Settings	viscosity [mPa·s]
x1 = 0.0147	0.553 ± 0.007
x2 = 0.0367	0.536 ± 0.007
x2 = 0.0682	0.547 ± 0.007
x2 = 0.0725	0.548 ± 0.007
x2 = 0.0933	0.555 ± 0.007
x2 = 0.1159	0.563 ± 0.008
x2 = 0.9531	0.556 ± 0.007
x2 = 0.9687	0.554 ± 0.007

CCCCCO + CO
298.15 K, 101.33 kPa
Settings	viscosity [mPa·s]
x2 = 0.1748	2.71 ± 0.058
x2 = 0.2198	2.528 ± 0.053
x2 = 0.327	2.143 ± 0.042
x2 = 0.4302	1.813 ± 0.034
x2 = 0.5186	1.57 ± 0.028
x2 = 0.5951	1.372 ± 0.024
x2 = 0.652	1.236 ± 0.021
x2 = 0.7911	0.932 ± 0.015
x2 = 0.8761	0.77 ± 0.012

ClC(Cl)=C(Cl)Cl + CO
viscosity [mPa·s], 101.33 kPa
Settings	x2 = 0.1436	x2 = 0.2974	x2 = 0.456	x2 = 0.6044	x2 = 0.7514	x2 = 0.9006
293.15 K	0.762 ± 0.014	0.721 ± 0.013	0.683 ± 0.013	0.639 ± 0.012	0.585 ± 0.011	0.535 ± 0.01
303.15 K	0.705 ± 0.013	0.667 ± 0.012	0.63 ± 0.012	0.59 ± 0.011	0.552 ± 0.01	0.512 ± 0.0099
313.15 K	0.6515 ± 0.012	0.622 ± 0.012	0.592 ± 0.011	0.561 ± 0.011	0.529 ± 0.01	0.497 ± 0.0096

O=[N+]([O-])c1ccccc1 + CO
viscosity [mPa·s]
Settings	298.15 K	303.15 K
101 kPa, x1 = 0.0148	0.5642 ± 0.0056	–
101 kPa, x2 = 0.0719	1.698 ± 0.017	–
101 kPa, x2 = 0.2616	1.416 ± 0.014	–
101 kPa, x2 = 0.4788	1.161 ± 0.012	–
101 kPa, x2 = 0.5889	1.036 ± 0.01	–
101 kPa, x2 = 0.7539	0.8366 ± 0.0084	–
101 kPa, x2 = 0.8593	0.7113 ± 0.0071	–
101 kPa, x2 = 0.9296	0.6279 ± 0.0063	–
101.33 kPa, x1 = 0.0281	0.5789 ± 0.031	0.541 ± 0.03
101.33 kPa, x1 = 0.0612	0.611 ± 0.033	0.5673 ± 0.031
101.33 kPa, x1 = 0.1003	0.6507 ± 0.034	0.607 ± 0.032
101.33 kPa, x1 = 0.1478	0.7156 ± 0.037	0.6653 ± 0.035
101.33 kPa, x1 = 0.2806	0.8769 ± 0.044	0.81 ± 0.041
101.33 kPa, x1 = 0.3909	1.006 ± 0.05	0.9279 ± 0.046
101.33 kPa, x1 = 0.5102	1.156 ± 0.056	1.093 ± 0.053
101.33 kPa, x1 = 0.5937	–	1.298 ± 0.062
101.33 kPa, x1 = 0.8005	1.559 ± 0.073	1.485 ± 0.07
101.33 kPa, x1 = 0.8978	1.693 ± 0.079	1.534 ± 0.072

CCCCCO + COC(=O)OC
101.3 kPa
Settings	viscosity [mPa·s]
293.15 K, x2 = 0.0482	3.367 ± 0.15
293.15 K, x2 = 0.0991	2.836 ± 0.13
293.15 K, x2 = 0.1941	2.11 ± 0.097
293.15 K, x2 = 0.2974	1.605 ± 0.076
293.15 K, x2 = 0.3939	1.304 ± 0.063
293.15 K, x2 = 0.4993	1.092 ± 0.054
293.15 K, x2 = 0.6	0.939 ± 0.047
293.15 K, x2 = 0.7013	0.81 ± 0.041
293.15 K, x2 = 0.8013	0.704 ± 0.037
293.15 K, x2 = 0.8915	0.635 ± 0.034
293.15 K, x2 = 0.9503	0.619 ± 0.033
298.15 K, x2 = 0.0457	2.905 ± 0.13
298.15 K, x2 = 0.1016	2.46 ± 0.11
298.15 K, x2 = 0.1979	1.88 ± 0.087
298.15 K, x2 = 0.3057	1.441 ± 0.069
298.15 K, x2 = 0.4024	1.179 ± 0.057
298.15 K, x2 = 0.503	0.988 ± 0.049
298.15 K, x2 = 0.5793	0.878 ± 0.044
298.15 K, x2 = 0.7034	0.739 ± 0.038
298.15 K, x2 = 0.8003	0.655 ± 0.035
298.15 K, x2 = 0.9018	0.597 ± 0.032
298.15 K, x2 = 0.9494	0.586 ± 0.032
303.15 K, x1 = 0.0192	0.542 ± 0.03
303.15 K, x2 = 0.0539	2.488 ± 0.11
303.15 K, x2 = 0.0906	2.228 ± 0.1
303.15 K, x2 = 0.1979	1.66 ± 0.078
303.15 K, x2 = 0.2613	1.416 ± 0.067
303.15 K, x2 = 0.3902	1.066 ± 0.052
303.15 K, x2 = 0.4928	0.89 ± 0.045
303.15 K, x2 = 0.5918	0.759 ± 0.039
303.15 K, x2 = 0.6923	0.661 ± 0.035
303.15 K, x2 = 0.792	0.601 ± 0.032
303.15 K, x2 = 0.8943	0.56 ± 0.031
313.15 K, x2 = 0.0467	1.972 ± 0.091
313.15 K, x2 = 0.1037	1.678 ± 0.079
313.15 K, x2 = 0.2514	1.161 ± 0.057
313.15 K, x2 = 0.3005	1.046 ± 0.052
313.15 K, x2 = 0.3996	0.876 ± 0.044
313.15 K, x2 = 0.5052	0.75 ± 0.039
313.15 K, x2 = 0.6059	0.659 ± 0.035
313.15 K, x2 = 0.7024	0.596 ± 0.032
313.15 K, x2 = 0.8053	0.54 ± 0.03
313.15 K, x2 = 0.9051	0.502 ± 0.028
313.15 K, x2 = 0.9651	0.494 ± 0.028

Reference: the CheMixHub viscosity set
